Experimental data: article PMC9797592, “TJ-M2010-5, a novel CNS drug candidate, attenuates acute cerebral ischemia-reperfusion injury through the MyD88/NF-κB and ERK pathway” (Frontiers in Pharmacology, 2022)

Experiments:
CIRI mice [1] = assay: MCAO cerebral ischemia-reperfusion injury model: neurological deficit score and TTC infarct volume; type: in vivo, C57BL/6 mice
Method: Male C57BL/6 mice (Beijing Vital River Laboratory Animal Technology Co. Ltd., Beijing, China) weighing 22–28 g and aged 8–10 weeks were used. All animal experiments were approved by the Institutional Animal Care and Use Committee of Tongji Hospital (Wuhan, China). All procedures were performed in accordance with specific pathogen-free standards. Mice were randomly divided into the following seven groups: sham, I/R, vehicle (I/R + saline), I/R + TJ-5 (5 mg/kg), I/R + TJ-5 (10 mg/kg), I/R + TJ-5 (15 mg/kg), and I/R + edaravone (3 mg/kg).
The mice were anesthetized with 1% pentobarbital sodium solution via intraperitoneal injection, and the body temperature was maintained at 37.0°C–37.5°C. The middle cerebral artery occlusion (MCAO) model was established according to the Longa method, as described previously ([Longa et al., 1989]). In brief, the right carotid artery was carefully separated and exposed. A silicon-coated embolic suture (Doccol, United States) was inserted slowly from the external carotid artery (ECA) into the internal carotid artery (ICA) until it reached the middle cerebral artery (MCA). After 1 h of ischemia, the embolic suture was withdrawn. The surgical procedure in the sham group was the same as that in the I/R group, but the MCA was not obstructed.
After 24 h of reperfusion, each group of mice was scored blindly, according to the scoring system of the Longa method ([Longa et al., 1989]). The score was 0 for no obvious neurological deficit, one for inability to fully extend the left forelimb, two for turning to the left, three for leaning to the left while walking, and four for the inability to walk spontaneously and impaired consciousness.
The mice were sacrificed 24 h after I/R. Mouse brains were harvested for the measurement of cerebral infarct volume. The brains were frozen at −80°C for 5 min and cut into five 2-mm thick slices. The slices were then placed in a small dish, 2% 2,3,5-triphenyltetrazolium chloride (TTC) solution (Sigma, United States) was added, and 4% paraformaldehyde was used for fixation. Images were captured using a digital camera. ImageJ software was used to measure the volume of the brain infarction.

[2] = test system: OGD/R-stimulated BV-2 cells; assay: OGD/R-stimulated BV-2 cells: TNF-α/IL-6 ELISA; type: cell-based
Method: (§1) Enzyme-linked immunosorbent assay (ELISA) kits were used to detect the levels of TNF-α, IL-1β, and IL-6 in the brain. Brain tissue was homogenized in 1 ml of phosphate-buffered saline using a tissue homogenizer. Then, the homogenates were centrifuged at 14,000 g for 10 min at 4 °C. The supernatant was immediately transferred for measurement following the manufacturer’s instructions. BV-2 cells were incubated with different treatments and the supernatants were collected and measured.

CIRI mice [3] = assay: Immunofluorescence staining (NeuN, TUNEL, Iba-1) of brain slices of CIRI mice; type: in vivo, C57BL/6 mice
Method: As mentioned previously, immunofluorescence staining was performed on paraffin-embedded brain slices ([Ye et al., 2020]). After standard histological procedures, the slices were treated with the TUNEL (terminal deoxynucleotidyl transferase dUTP nick end labeling) reaction mixture to detect apoptosis according to the manufacturer’s protocol (Roche, Germany). Furthermore, the slices were used for immunofluorescence with rabbit anti-NeuN antibody (1:300, CST) and rabbit anti-Iba-1 antibody (1:500, CST). After incubating overnight at 4°C, goat anti-rabbit IgG (1:1000) secondary antibodies were applied, and the brain slices were incubated for 2 h at room temperature. Finally, the slices were washed and labeled with 4′,6-diamidino-2-phenylindole for 10 min at room temperature. Images were captured using a fluorescence microscope.

CIRI mice [4] = assay: RT-qPCR and ELISA of inflammatory factors in the brain of CIRI mice; type: in vivo, C57BL/6 mice; details: TJ-5 15 mg/kg i.v. after 1 h ischemia
Method: Total mRNA was extracted from the brain cortex using TRIzol reagent and reverse-transcribed into cDNA using the PrimeScript™ RT reagent kit (Takara, Japan), following the manufacturer’s instructions. RT-qPCR was performed using SYBR Green Real-time PCR Master Mix (Takara, Japan) with the Step One System (Life Technologies). The results were expressed as fold change from the untreated control and analyzed using the 2^−ΔΔCt method. The primers were as follows (5′–3′): MyD88 forward: TTTATCTGCTACTGCCCCAACG, reverse: GCGGCGACACCTTTTCTCA; TLR4 forward: ATGCTGCAACTGATGTTCCTTC, reverse: GATGTTAGACCTTTCTTCCTCCC; GAPDH forward: TGTTCCTACCCCCAATGTGTCC, reverse: GGAGTTGCTGTTGAAGTCGCAG; TNF-α forward: ATGGCCTCCCTCTCATCAGT, reverse: TGGTTTGCTACGACGTGGG; IL-6 forward: AGTGGCTAAGGACCAAGAC, reverse: ATAACGCACTAGGTTTGCCGA; iNOS forward: ATTCACAGCTCATCCGGTACG, reverse: GGATCTTGACCATCAGCTTGC; IL-1β forward: GCACTACAGGCTCCGAGATGAA, reverse: GTCGTTGCTTGGTTCTCCTTGT.
Enzyme-linked immunosorbent assay (ELISA) kits were used to detect the levels of TNF-α, IL-1β, and IL-6 in the brain. Brain tissue was homogenized in 1 ml of phosphate-buffered saline using a tissue homogenizer. […] BV-2 cells were incubated with different treatments and the supernatants were collected and measured.

BV-2 cells = assay: CCK-8 cell viability assay, BV-2; type: cell-based; details: concentrations below 20 μM, 24 h
Method: BV-2 and SH-SY5Y cells were seeded in a 96-well plate at a density of 1 × 10^4 cells/well. Twenty-4 hours later, different concentrations of TJ-5 (0, 1, 5, 10, 20, and 30 μM) were added and co-cultured with cells for 24 h. Cell Counting Kit-8 (CCK8, Sigma, Shanghai, China) was used to measure cell viability. Experiments were conducted according to the manufacturer’s instructions. After incubation at 37°C for 2 h, absorbance was measured at 450 nm using a microplate reader (Synergy 2, BioTek Instruments, United States).

[5] = test system: LPS-stimulated BV-2 cells; assay: LPS-stimulated BV-2 cell model: morphology and TNF-α/IL-6 ELISA; type: cell-based
Method: BV-2 microglial and SH-SY5Y cells were cultured as previously described ([Zhao et al., 2020]). A lipopolysaccharide (LPS)-stimulated BV-2 cell model was established to mimic severe neuroinflammation induced by multiple inflammatory mediators after reperfusion ([Li et al., 2021]). BV-2 cells were pretreated with different concentrations of TJ-5 for 2 h before LPS (1 μg/ml) stimulation (#L2880, Sigma, United States). Twenty-4 hours later, BV-2 cells and the culture supernatants were harvested for subsequent experiments. In addition, ST2825, a recognized MyD88 inhibitor, was used as positive control group.
as §1

O=C(CCN1CCN(Cc2ccccc2)CC1)Nc1nc(-c2ccccc2)cs1 [TJ-5]
percentage of infarct volume (CIRI mice [1]; TJ-5 15 mg/kg i.v. at 1 h of ischemia, 24 h reperfusion, TTC, I/R group 34.24%): 8.47% | neurological deficit score (CIRI mice [1]; TJ-5 15 mg/kg vs I/R group, 24 h reperfusion, Longa score): significantly lower | infarct volume (CIRI mice [1]; intravenous TJ-5 at 4 h reperfusion, TTC at 24 h after reperfusion): effectively reduced infarct volume | levels of TNF-α and IL-6 in supernatants [2]: markedly reduced | apoptosis (TUNEL) in whole brain and ischemic penumbra of the cortex (CIRI mice [3]; TJ-5 15 mg/kg i.v. after 1 h ischemia): significantly reduced | number of neurons (NeuN) in the injured hemisphere (CIRI mice [3]; TJ-5 15 mg/kg vs vehicle group): significantly increased | number of Iba-1 positive cells in cortex (CIRI mice [3]; TJ-5 15 mg/kg, vs I/R group): significantly decreased | iNOS (with TNF-α, IL-6, IL-1β) mRNA expression levels in the brain (CIRI mice [4]; RT-qPCR): downregulated | expression of TNF-α, IL-1β, and IL-6 in the brain (mRNA and protein) (CIRI mice [4]; RT-qPCR and ELISA): reduced | viability of BV-2 cells (BV-2 cells): did not affect the viability | levels of TNF-α and IL-6 in supernatants ([5]; LPS-stimulated BV-2 cells, pretreatment 2 h, LPS 24 h, ELISA): markedly reduced | activation (morphology) of LPS-stimulated BV-2 cells ([5]; pretreatment 2 h before LPS 1 μg/ml, 24 h): inhibited
